*1 amine or outer side, *2 acyl side, *3 side chain or, on linkers, in order; H or OH if unused. Where a SMILES comes first, the peptide text is derived from it. Bridges are numbered along the chain shown (N, C = ends). X1 = CC[C@@]1(OC(=O)CCC(=O)NCCOCCOCCOCCn2cc(COc3cc(C[*:1])cc(C[*:2])c3)nn2)C(=O)OCc2c1cc1n(c2=O)Cc2cc3ccccc3nc2-1; X2 = CC[C@@]1(OC(=O)Cn2cc(COc3cc(C[*:1])cc(C[*:2])c3)nn2)C(=O)OCc2c1cc1n(c2=O)Cc2cc3ccccc3nc2-1
Test system: A549 cells
Details: human

`CC[C@H](C)[C@@H]1NC(=O)[C@H](CC(N)=O)NC(=O)[C@@H]2CCCN2C(=O)[C@H](CC(N)=O)NC(=O)[C@H](CC(N)=O)NC(=O)[C@H](C(C)C)NC(=O)[C@H](CCCNC(=N)N)NC(=O)[C@@H]2CSSC[C@H](NC(=O)CNC(=O)[C@@H](N)CO)C(=O)N[C@@H](CSCc3cc(cc(OCc4cn(CC(=O)O[C@]5(CC)C(=O)OCc6c5cc5n(c6=O)Cc6cc7ccccc7nc6-5)nn4)c3)CSC[C@@H](C(N)=O)NC1=O)C(=O)N[C@@H](CO)C(=O)N[C@@H](CC(N)=O)C(=O)N1CCC[C@H]1C(=O)N[C@@H](C)C(=O)N2` [LsIA[2,4]-8] (H-SGCCSNPACRVNNPNIC-NH2; disulfide 3-9; linker 4-17 via X2) gave an IC50 of 216 nM.

Work on `CC[C@H](C)[C@@H]1NC(=O)[C@H](CC(N)=O)NC(=O)[C@@H]2CCCN2C(=O)[C@H](CC(N)=O)NC(=O)[C@H](CC(N)=O)NC(=O)[C@H](C(C)C)NC(=O)[C@H](CCCNC(=N)N)NC(=O)[C@@H]2CSSC[C@H](NC(=O)CNC(=O)[C@@H](N)CO)C(=O)N[C@@H](CSCc3cc(cc(OCc4cn(CCOCCOCCOCCNC(=O)CCC(=O)O[C@]5(CC)C(=O)OCc6c5cc5n(c6=O)Cc6cc7ccccc7nc6-5)nn4)c3)CSC[C@@H](C(N)=O)NC1=O)C(=O)N[C@@H](CO)C(=O)N[C@@H](CC(N)=O)C(=O)N1CCC[C@H]1C(=O)N[C@@H](C)C(=O)N2` [LsIA[2,4]-9] (H-SGCCSNPACRVNNPNIC-NH2; disulfide 3-9; linker 4-17 via X1) yielded an IC50 of 338 nM.
